Results reported in article PMC9228592, “Dichloroacetyl Amides of 3,5-Bis(benzylidene)-4-piperidones Displaying Greater Toxicity to Neoplasms than to Non-Malignant Cells” (Medicines, 2022).

How the values were obtained:
Assay type in all cases: cell-based, human
[1] = test system: Ca9-22 squamous cell carcinoma cells; test: Cytotoxicity (MTT, 48 h) against Ca9-22 cells; conditions: for CC50: 48 h, MTT, mean ± S.D. of triplicate; for SI (Ca9-22): average CC50 towards HGF, HPLF, HPC divided by CC50 against Ca9-22
Source text: (§1) The target cells used in our study were human oral squamous cell carcinoma cell lines Ca9-22 (purchased from RIKEN Cell Bank, Tukuba, RCB-1976), HSC-2 (RCB1945), HSC-3 (RCB1975), HSC-4 (RCB1902), and three human normal oral cells, gingival fibroblast (HGF), periodontal ligament fibroblast (HPLF), and pulp cells (HPC) [established from the first premolar extracted tooth in the lower jaw (because of dysfunctional position or orthodontic treatment) and periodontal tissues of a child, according to the guideline of the Institutional Board of Meikai University Ethics Committee (No. A0808)], after obtaining informed consent from the patients. These cells were incubated for 48 h with the indicated concentrations of test samples or reference compounds sodium dichloroacetate (purchased from Sigma-Aldrich Chemical Company, Saint Louis, MO, USA), 5-fluorouracil (5-FU) from Kyowa (Tokyo, Japan), and doxorubicin (DXR) (St. Louis, MO, USA) and vehicle (DMSO) (0.008, 0.016, 0.031, 0.063, 0.125, 0.25, 0.5, and 1%) in Dulbecco’s Modified Eagle Medium (DMEM) media, which was supplemented with 10% heat-inactivated fetal bovine serum. Cell viability was determined by the MTT method. Cytotoxicity caused by the vehicle (DMSO) was subtracted.
(§2) SI was calculated by dividing the average CC50 value (concentration of the compound to kill 50% of the cells) of the compound towards HGF, HPLF, and HPC cells by the CC50 value of the compound against a specific neoplastic cell line.

[2] = test system: HSC-2 squamous cell carcinoma cells; test: Cytotoxicity (MTT, 48 h) against HSC-2 cells; conditions: for SI (HSC-2): average CC50 towards HGF, HPLF, HPC divided by CC50 against HSC-2
Source text: as §1, §2

[3] = test system: HSC-3 squamous cell carcinoma cells; test: Cytotoxicity (MTT, 48 h) against HSC-3 cells; conditions: for CC50: 48 h, MTT, mean ± S.D. of triplicate; for SI (HSC-3): average CC50 towards HGF, HPLF, HPC divided by CC50 against HSC-3
Source text: as §1, §2

[4] = test system: HSC-4 squamous cell carcinoma cells; test: Cytotoxicity (MTT, 48 h) against HSC-4 cells; conditions: for CC50: 48 h, MTT, mean ± S.D. of triplicate; for SI (HSC-4): average CC50 towards HGF, HPLF, HPC divided by CC50 against HSC-4
Source text: as §1, §2

[5] = Cytotoxicity (MTT, 48 h) against HGF non-malignant cells; conditions: human, normal gingival fibroblasts (HGF), mean ± S.D. of triplicate
Source text: as §1

[6] = Cytotoxicity (MTT, 48 h) against HPLF non-malignant cells; conditions: human, normal periodontal ligament fibroblasts (HPLF), mean ± S.D. of triplicate
Source text: as §1

[7] = Cytotoxicity (MTT, 48 h) against HPC non-malignant cells; conditions: female, human, normal pulp cells (HPC), mean ± S.D. of triplicate
Source text: as §1

[8] = test system: Ca9-22, HSC-2, HSC-3, and HSC-4 cells; test: Average cytotoxicity, selectivity and PSE over the four carcinoma lines; conditions: for Average SI: average of SI over Ca9-22, HSC-2, HSC-3, HSC-4
Source text: as §1, §2
PSE reflects both the potencies and differences in cytotoxicity to neoplasms and non-malignant cells. This value was the product of the reciprocal of the average CC50 value of the compounds towards Ca9-22, HSC-2, HSC-3, and HSC-4 cells and the average SI value × 100.

[9] = Average cytotoxicity over the three non-malignant cells; conditions: female, human, normal oral cells HGF, HPLF and HPC (average over the three)
Source text: as §1

[10] = test system: gingival fibroblast (HGF); test: Cytotoxicity (MTT, 48 h) against HGF non-malignant cells; conditions: mean ± S.D. of triplicate
Source text: as §1

[11] = test system: periodontal ligament fibroblast (HPLF); test: Cytotoxicity (MTT, 48 h) against HPLF non-malignant cells; conditions: mean ± S.D. of triplicate
Source text: as §1

[12] = test system: pulp cells (HPC); test: Cytotoxicity (MTT, 48 h) against HPC non-malignant cells; conditions: mean ± S.D. of triplicate
Source text: as §1

[13] = test system: HGF, HPLF, and HPC cells; test: Average cytotoxicity over the three non-malignant cells
Source text: as §1

[14] = test system: Ca9-22 cells; test: Cell cycle assay in Ca9-22 cells; conditions: 20 h
Protocol: The evaluation of varying quantities of 1d,e,k on the cell cycle in Ca9-22 cells was undertaken by a literature method. In brief, Ca9-22 cells were treated for 20 h without (control) or with the indicated concentrations of the test samples. To neglect the cytotoxicity effect of DMSO, all samples contained 0.1% DMSO. Cells (approximately 10^6 cells) were harvested, fixed for 1 h on ice with 1% paraformaldehyde, washed twice by phosphate-buffered saline, treated for 30 min at 37 °C with 0.2 mg/mL RNase A (ribonuclease A), stained for 15 min at room temperature with 0.01% propidium iodide in the presence of 0.01% NP-40 (nonyl phenoxypolyethoxyethanol) to prevent cell aggregation, filtered through Falcon® cell strainers (pore size: 40 µm) (Corning, NY, USA), subjected to cell sorting (SH800 Series; SONY Imaging Products and Solutions Inc., Kanagawa, Japan), and then analyzed with Cell Sorter Software version 2.1.2. (SONY Imaging Products and Solutions Inc., Kanagawa, Japan).

[15] = Homo sapiens, HSC-2, 48 h, MTT, mean ± S.D. of triplicate
[16] = Homo sapiens, average over Ca9-22, HSC-2, HSC-3, HSC-4
[17] = 48 h, MTT, mean ± S.D. of triplicate
[18] = average over Ca9-22, HSC-2, HSC-3, HSC-4

| Compound | SI (Ca9-22) [1] | SI (HSC-2) [2] | SI (HSC-3) [3] | SI (HSC-4) [4] | Average SI [8] | CC50 [1] [µM] | CC50 [2, 17] [µM] | CC50 [3] [µM] | CC50 [4] [µM] | CC50 [10] [µM] | CC50 [11] [µM] | CC50 [12] [µM] | CC50 [8, 18] [µM] | CC50 [13] [µM] | also measured |
| --- | --- | --- | --- | --- | --- | --- | --- | --- | --- | --- | --- | --- | --- | --- | --- |
| COc1ccc(/C=C2\CN(C(=O)C(Cl)Cl)C/C(=C\c3ccc(OC)c(OC)c3)C2=O)cc1OC [Compound 1g] | 36.8 | 23.8 | 14.5 | 20.3 | 23.9 | – | – | – | – | – | – | – | – | – | CC50 ([1]; Homo sapiens, Ca9-22): 0.11 ± 0.02 µM; CC50 [2, 15]: 0.17 ± 0.02 µM; CC50 ([3]; Homo sapiens, HSC-3): 0.28 ± 0.03 µM; CC50 ([4]; Homo sapiens, HSC-4): 0.2 ± 0.04 µM; CC50 at 48 h [5]: 8.13 ± 2.47 µM; CC50 at 48 h [6]: 2.83 ± 1.53 µM; CC50 at 48 h [7]: 1.19 ± 0.09 µM; CC50 [8, 16]: 0.19 µM; CC50 at 48 h [9]: 4.05 µM |
| O=C1/C(=C/c2ccc3c(c2)OCO3)CN(C(=O)C(Cl)Cl)C/C1=C\c1ccc2c(c1)OCO2 [Compound 1i] | 25.1 | 11.9 | 5.77 | 6.57 | 12.3 | 0.17 ± 0.06 | 0.36 ± 0.01 | 0.74 ± 0.13 | 0.65 ± 0.17 | 5.67 ± 0.31 | 4.37 ± 0.85 | 2.78 ± 0.14 | 0.48 | 4.27 | – |
| Cc1ccc(C=C2CN(C(=O)C(Cl)Cl)CC(=Cc3ccc(C)cc3)C2=O)cc1 [Compound 1j] | 32.1 | 18.5 | 10.5 | 10.7 | 18.0 | 0.15 ± 0.03 | 0.26 ± 0.01 | 0.46 ± 0.04 | 0.45 ± 0.04 | 5.53 ± 0.31 | 5 ± 0.1 | 3.93 ± 0.65 | 0.33 | 4.82 | – |
| CN(C)c1ccc(C=C2CN(C(=O)C(Cl)Cl)CC(=Cc3ccc(N(C)C)cc3)C2=O)cc1 [Compound 1l] | 10.3 | 9.40 | 3.08 | 7.14 | 7.48 | 13.6 ± 2.7 | 14.9 ± 4.4 | 45.5 ± 7.6 | 19.6 ± 6.3 | 111 ± 27 | 188 ± 21 | 122 ± 69 | 23.4 | 140 | CC50 Average (non-malignant cells) [13]: very low toxicity |
| O=C1C(=Cc2ccc(F)cc2)CN(C(=O)C(Cl)Cl)CC1=Cc1ccc(F)cc1 [Compound 1b] | 19.8 | 8.72 | 4.96 | 6.61 | 10.0 | 0.11 ± 0.01 | 0.25 ± 0.02 | 0.44 ± 0.02 | 0.33 ± 0.07 | 2.97 ± 0.46 | 2.26 ± 0.11 | 1.3 ± 0.16 | 0.28 | 2.18 | – |
| COc1ccc(/C=C2\CN(C(=O)C(Cl)Cl)C/C(=C\c3ccc(OC)cc3)C2=O)cc1 [Compound 1f] | 15.4 | 11.5 | 5.99 | 4.75 | 9.41 | 0.39 ± 0.02 | 0.52 ± 0.07 | 1 ± 0.16 | 1.26 ± 0.27 | 9.03 ± 0.76 | 5.33 ± 0.32 | 3.62 ± 0.07 | 0.79 | 5.99 | – |
| O=C1C(=Cc2ccc(Cl)c(Cl)c2)CN(C(=O)C(Cl)Cl)CC1=Cc1ccc(Cl)c(Cl)c1 [Compound 1e] | 19.5 | 9.75 | 6.00 | 3.39 | 9.66 | 0.04 | 0.08 ± 0.01 | 0.13 ± 0.06 | 0.23 ± 0.01 | 1.04 ± 0.13 | 0.82 ± 0.1 | 0.49 | 0.12 | 0.78 | HSC-2 CC50 [2, 17]: double-digit nanomolar; subG1 population ([14]; 0.8 µM): slight increase; G2M cell population ([14]; 0.8 µM, p < 0.05): most prominent increase; effect on the cell cycle ([14]; 0.1, 0.2, and 0.4 µM): little effects |
| CC(=O)N1C/C(=C\c2ccccc2)C(=O)/C(=C/c2ccccc2)C1 [Compound 2b] | 17.3 | 9.02 | 4.93 | 7.07 | 9.58 | – | – | – | – | – | – | – | – | – | CC50 ([1]; Homo sapiens, Ca9-22): 0.64 ± 0.01 µM; CC50 [2, 15]: 1.23 ± 0.07 µM; CC50 ([3]; Homo sapiens, HSC-3): 2.25 ± 0.08 µM; CC50 ([4]; Homo sapiens, HSC-4): 1.57 ± 0.12 µM; CC50 at 48 h [5]: 23 ± 1.7 µM; CC50 at 48 h [6]: 5.6 ± 1.13 µM; CC50 at 48 h [7]: 4.83 ± 0.12 µM; CC50 [8, 16]: 1.42 µM; CC50 at 48 h [9]: 11.1 µM |
| O=C1C(=Cc2ccc(F)c(F)c2)CN(C(=O)C(Cl)Cl)CC1=Cc1ccc(F)c(F)c1 [Compound 1c] | 20.0 | 9.00 | 5.14 | 9.00 | 10.8 | 0.09 ± 0.02 | 0.2 ± 0.02 | 0.35 ± 0.02 | 0.2 ± 0.01 | 2.21 ± 0.11 | 1.91 ± 0.08 | 1.28 ± 0.37 | 0.21 | 1.8 | – |
| O=c1[nH]cc(F)c(=O)[nH]1 [Compound 5-FU, 5-fluorouracil, reference compound] | >40.7 | >32.7 | >16.3 | – | >55.2 | – | – | – | – | – | – | – | – | – | CC50 ([1]; Homo sapiens, Ca9-22): 24.5 ± 12.3 µM; CC50 [2, 15]: 30.5 ± 7.1 µM; CC50 ([3]; Homo sapiens, HSC-3): 61.3 ± 9.8 µM; CC50 ([4]; Homo sapiens, HSC-4): 7.58 ± 0.5 µM; CC50 at 48 h [5]: > 1000 µM; CC50 at 48 h [6]: > 1000 µM; CC50 at 48 h [7]: > 987 µM; CC50 [8, 16]: 31 µM; CC50 at 48 h [9]: > 996 µM |
| O=C1C(=Cc2ccccc2)CN(C(=O)C(Cl)Cl)CC1=Cc1ccccc1 [Compound 1a] | 9.64 | 6.05 | 3.14 | 6.86 | 6.42 | 0.42 ± 0.04 | 0.67 ± 0.06 | 1.29 ± 0.07 | 0.59 ± 0.12 | 5.9 ± 0.1 | 3.37 ± 0.42 | 2.88 ± 0.08 | 0.74 | 4.05 | – |
| COc1cc(/C=C2\CN(C(=O)C(Cl)Cl)C/C(=C\c3cc(OC)c(OC)c(OC)c3)C2=O)cc(OC)c1OC [Compound 1h] | 11.9 | – | 6.26 | 8.67 | 22.0 | 0.72 ± 0.15 | 0.14 ± 0.01 | 1.37 ± 0.22 | 0.99 ± 0.39 | 4.7 ± 1.6 | 17 ± 5.1 | 4 ± 0.6 | 0.8 | 8.58 | – |
| O=C([O-])C(Cl)Cl.[Na+] [SDA, sodium dichloroacetate, reference compound] | – | – | – | – | – | > 200 | > 200 | > 200 | > 200 | > 200 | > 200 | > 200 | > 200 | > 200 | Average CC50 [8, 18]: little or no efficacy |
